Like-named read-outs stand apart in the source and are kept apart here.
Biological target: T1, SFRP-1 (Homo sapiens, UniProt Q8N474)
T1 sequence (Q8N474 32-314): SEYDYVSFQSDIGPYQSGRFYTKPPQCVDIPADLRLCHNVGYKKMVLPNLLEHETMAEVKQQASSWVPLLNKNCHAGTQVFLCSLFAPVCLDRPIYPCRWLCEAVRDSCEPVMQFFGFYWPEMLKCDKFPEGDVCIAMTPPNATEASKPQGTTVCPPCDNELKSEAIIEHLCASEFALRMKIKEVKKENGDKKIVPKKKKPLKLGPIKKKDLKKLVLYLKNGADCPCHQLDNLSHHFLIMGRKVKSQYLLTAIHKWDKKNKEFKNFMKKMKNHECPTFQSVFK
Assay: Cell-based assay for in vitro measurement of SFRP-1/SARP2 antagonist activity (U2OS cells co-transfected with 16x TCF-tk-Luciferase reporter, Wnt and hSFRP-1);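 note: U2OS cells co-transfected with a TCF-tk luciferase reporter, a Wnt vector, hSFRP-1 or empty vector and CMV-βgal, luciferase luminescence read in cell lysates alongside βgal activity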
Details: U2OS; for fold induction at 10 µM: read-out: Fold Induction with SFRP-1, U2OS cells, single dose 10 μM, luciferase reporter, fold induction over SFRP-1 control

[1] = read-out: Fold Induction with SFRP-1, Conc 15 μM, with SFRP-1, fold induction over SFRP-1 control, single dose
[2] = read-out: Fold Induction without SFRP-1, Conc 15 μM, without SFRP-1, single dose
[3] = read-out: Fold Induction with SFRP-1, Conc 30 μM, with SFRP-1, fold induction over SFRP-1 control, single dose
[4] = read-out: Fold Induction without SFRP-1, Conc 30 μM, without SFRP-1, single dose
[5] = read-out: Fold Induction with SFRP-1, Conc 20 μM, with SFRP-1, fold induction over SFRP-1 control, single dose
[6] = read-out: Fold Induction without SFRP-1, Conc 20 μM, without SFRP-1, single dose

SMILES	fold induction at 15 µM [1]	fold induction at 15 µM [2]	also measured
Cc1ccc(S(=O)(=O)c2ccc(C#N)cc2)cc1S(=O)(=O)NC1CCOCC1 [Example 376, 5-[(4-cyanophenyl)sulfonyl]-2-methyl-N-(tetrahydro-2H-pyran-4-yl)benzenesulfonamide]	1.5	1.1	–
O=S(=O)(NCCCN1CCCC1)c1cccc(S(=O)(=O)c2ccccc2)c1 [Example 200, 3-(phenylsulfonyl)-N-(3-pyrrolidin-1-ylpropyl)benzenesulfonamide]	–	–	fold induction at 30 µM [3]: 1.4; fold induction at 30 µM [4]: 1.8
Cc1ccc(S(=O)(=O)c2ccccc2)c(C)c1S(=O)(=O)NC1CCOCC1 [Example 473, 2,6-dimethyl-3-(phenylsulfonyl)-N-(tetrahydro-2H-pyran-4-yl)benzenesulfonamide]	0.9	0.9	–
CCc1ccc(S(=O)(=O)c2ccccc2)cc1S(=O)(=O)NCCC1CCOCC1 [Example 301, 2-ethyl-5-(phenylsulfonyl)-N-(2-tetrahydro-2H-pyran-4-ylethyl)benzenesulfonamide]	3.3	1.2	–
COc1ccc(CCNS(=O)(=O)c2cc(S(=O)(=O)c3ccc(Cl)cc3)ccc2C)cc1OC [Example 92, 5-[(4-chlorophenyl)sulfonyl]-N-[2-(3,4-dimethoxyphenyl)ethyl]-2-methylbenzenesulfonamide]	–	–	fold induction at 30 µM [3]: 1; fold induction at 30 µM [4]: 0.4
Cc1ccc(S(=O)(=O)c2ccc(F)cc2)cc1S(=O)(=O)NCCc1ccccc1 [Example 2, 5-[(4-fluorophenyl)sulfonyl]-2-methyl-N-(2-phenylethyl)benzenesulfonamide]	–	–	fold induction at 30 µM [3]: 0.9; fold induction at 30 µM [4]: 0.5
Cc1ccc(S(=O)(=O)c2ccccc2)cc1S(=O)(=O)N[C@H]1C[C@@H]1c1ccccc1 [Example 247, 2-methyl-N-[(1S,2R)-2-phenylcyclopropyl]-5-(phenylsulfonyl)benzenesulfonamide]	–	–	fold induction at 20 µM [5]: 1.7; fold induction at 20 µM [6]: 0.9
Cc1cc(C)c(S(=O)(=O)c2ccccc2)cc1S(=O)(=O)NC1CCOCC1 [Example 327, 2,4-dimethyl-5-(phenylsulfonyl)-N-tetrahydro-2H-pyran-4-ylbenzenesulfonamide]	2.7	1	–
COc1ccc(S(=O)(=O)c2ccccc2)cc1S(=O)(=O)NC[C@H](C)c1ccccc1 [Example 271, 2-methoxy-N-[(2R)-2-phenylpropyl]-5-(phenylsulfonyl)benzenesulfonamide]	1.7	1.2	–
Cc1ccc(S(=O)(=O)c2ccc(C)c(S(=O)(=O)NC3Cc4ccccc4C3)c2)cc1 [Example 252, N-2,3-dihydro-1H-inden-2-yl-2-methyl-5-[(4-methylphenyl)sulfonyl]benzenesulfonamide]	–	–	fold induction at 20 µM [5]: 2.6; fold induction at 20 µM [6]: 1
Cc1ccc(S(=O)(=O)c2cc(Cl)cc(C#N)c2)cc1S(=O)(=O)NCCc1ccccn1 [Example 492, 5-[(3-chloro-5-cyanophenyl)sulfonyl]-2-methyl-N-(2-pyridin-2-ylethyl)benzenesulfonamide]	–	–	fold induction at 15 µM (read-out: Fold Induction with SFRP-1, Conc 15 μM, single dose, luciferase reporter, fold induction over SFRP-1 control, cells with SFRP-1): 1.6; fold induction at 15 µM (read-out: Fold Induction without SFRP-1, Conc 15 μM, single dose, luciferase reporter, cells without SFRP-1 (specificity control)): 1.2
Cc1ccc(S(=O)(=O)c2ccc(Br)cc2)cc1S(=O)(=O)NC1CCOCC1 [Example 375, 5-[(4-bromophenyl)sulfonyl]-2-methyl-N-(tetrahydro-2H-pyran-4-yl)benzenesulfonamide]	1.9	0.9	–
COCCNS(=O)(=O)c1cccc(S(=O)(=O)c2ccccc2)c1 [Example 197, N-(2-methoxyethyl)-3-(phenylsulfonyl)benzenesulfonamide]	–	–	fold induction at 30 µM [3]: 1.1; fold induction at 30 µM [4]: 1.2
O=S(=O)(NCCc1c[nH]cn1)c1cccc(S(=O)(=O)c2ccccc2)c1 [Example 189, N-[2-(1H-imidazol-4-yl)ethyl]-3-(phenylsulfonyl)benzenesulfonamide]	–	–	fold induction at 30 µM [3]: 1.3; fold induction at 30 µM [4]: 1
Cc1cc(C)c(S(=O)(=O)c2ccccc2)cc1S(=O)(=O)NCCc1ccccn1 [Example 326, 2,4-dimethyl-5-(phenylsulfonyl)-N-(2-pyridin-2-ylethyl)benzenesulfonamide]	2.4	1	–
CCN(CC)CCCNS(=O)(=O)c1cc(S(=O)(=O)c2ccccc2)ccc1OC [Example 241, N-[3-(diethylamino)propyl]-2-methoxy-5-(phenylsulfonyl)benzenesulfonamide]	1.8	1.1	–
COc1ccc(S(=O)(=O)c2ccccc2)cc1S(=O)(=O)NCCc1cccc(F)c1 [Example 155, N-[2-(3-fluorophenyl)ethyl]-2-methoxy-5-(phenylsulfonyl)benzenesulfonamide]	1.5	1.2	–
Cc1ccc(S(=O)(=O)c2ccccc2)cc1S(=O)(=O)NCCC(=O)N(C)c1ccccc1 [Example 668, N-methyl-N^3-{[2-methyl-5-(phenylsulfonyl)phenyl]sulfonyl}-N-phenyl-β-alaninamide]	–	–	fold induction at 10 µM: 1.4
Cc1cc(C)c(S(=O)(=O)c2ccccc2)cc1S(=O)(=O)NCC(O)c1cccnc1 (stereo not drawn) [Example 737, N-(2-hydroxy-2-pyridin-3-ylethyl)-2,4-dimethyl-5-(phenylsulfonyl)benzenesulfonamide]	–	–	fold induction at 10 µM: 2.4

The next lines start with results.

fold induction at 15 µM [1]	fold induction at 15 µM [2]	SMILES	also measured
1.8	1.3	COc1ccc(S(=O)(=O)c2ccc(C)c(S(=O)(=O)NCCCn3ccnc3)c2)cc1 [Example 315, N-[3-(1H-imidazol-1-yl)propyl]-5-[(4-methoxyphenyl)sulfonyl]-2-methylbenzenesulfonamide]	–
2.6	1.3	CCN(CC)CCCNS(=O)(=O)c1cc(S(=O)(=O)c2ccc(F)cc2)ccc1C [Example 176, N-[3-(diethylamino)propyl]-5-[(4-fluorophenyl)sulfonyl]-2-methylbenzenesulfonamide]	–
1.7	0.9	CC(=O)NCCNS(=O)(=O)c1cc(S(=O)(=O)c2ccc(F)cc2)ccc1C [Example 168, N-{2-[({5-[(4-fluorophenyl)sulfonyl]-2-methylphenyl}sulfonyl)amino]ethyl}acetamide]	–
2.5	0.9	Cc1ccc(S(=O)(=O)c2ccc(N=[N+]=[N-])cc2)cc1S(=O)(=O)NCCCn1ccnc1 [Example 293, 5-[(4-azidophenyl)sulfonyl]-N-[3-(1H-imidazol-1-yl)propyl]-2-methylbenzenesulfonamide]	–
1.6	1	Cc1ccc(S(=O)(=O)c2ccc(C(C)(C)C)cc2)cc1S(=O)(=O)NCCc1ccccn1 [Example 438, 5-[(4-tert-butylphenyl)sulfonyl]-2-methyl-N-(2-pyridin-2-ylethyl)benzenesulfonamide]	–
1.2	1	Cc1ccc(S(=O)(=O)c2ccc(F)cc2)cc1S(=O)(=O)NCCC(=O)O [Example 180, N-({5-[(4-fluorophenyl)sulfonyl]-2-methylphenyl}sulfonyl)-beta-alanine]	–
1.5	1	CCCNS(=O)(=O)c1cc(S(=O)(=O)c2ccccc2)ccc1C [Example 394, 2-methyl-5-(phenylsulfonyl)-N-propylbenzenesulfonamide]	–
2.4	1	Cc1ccc(S(=O)(=O)c2ccc(NC3CCOCC3)cc2)cc1S(=O)(=O)NCCCn1ccnc1 [Example 366, N-[3-(1H-imidazol-1-yl)propyl]-2-methyl-5-{[4-(tetrahydro-2H-pyran-4-ylamino)phenyl]sulfonyl}benzenesulfonamide]	–
2.5	1.2	Cc1cc(S(=O)(=O)c2ccccc2)cc(S(=O)(=O)NCCCn2ccnc2)c1C [Example 348, N-[3-(1H-imidazol-1-yl)propyl]-2,3-dimethyl-5-(phenylsulfonyl)benzenesulfonamide]	–
2.6	0.9	COc1cccc(S(=O)(=O)c2ccc(C)c(S(=O)(=O)NCCCn3ccnc3)c2)c1 [Example 323, N-[3-(1H-imidazol-1-yl)propyl]-5-[(3-methoxyphenyl)sulfonyl]-2-methylbenzenesulfonamide]	–
1.3	1.1	Cc1ccc(S(=O)(=O)c2ccccc2)cc1S(=O)(=O)NCCCc1ccccc1 [Example 244, 2-methyl-N-(3-phenylpropyl)-5-(phenylsulfonyl)benzenesulfonamide]	–
3.4	0.9	Cc1ccc(S(=O)(=O)c2ccc(NC(C)c3ccccc3)cc2)cc1S(=O)(=O)NCCCn1ccnc1 (stereo not drawn) [Example 355, N-[3-(1H-imidazol-1-yl)propyl]-2-methyl-5-({4-[(1-phenylethyl)amino]phenyl}sulfonyl)benzenesulfonamide]	–
